Test results taken from patent US20230165865A1, “HETEROARYLDIHYDROPYRIMIDINE DERIVATIVES AND METHODS OF TREATING HEPATITIS B INFECTIONS” (Janssen Pharmaceutica NV, priority 2018, published 2023).
Where two headings read alike, the source gives them in different places.

Columns and labels:
[1] = Metabolic stability of test compound in human hepatocyte cell; format: in vitro ADME; settings: cryopreserved human hepatocytes (suspension), human hepatocytes; for half-life at 1 uM: 0-120 min, read-out: T½; for CLint scaled at 1 uM: scale-up intrinsic clearance, scaling factor 2544.3, read-out: Clint (liver)
Experimental: • 1. The cryopreserved human hepatocytes cells were thawed in 37° C. water bath and diluted with pre-warmed incubation medium to a working cell density of 1×10^6 viable cells/mL. • 2. The 198 μL pre-warmed hepatocyte suspensions were spiked with 2 μL of 100 μM compound or reference compound(Verapamil) at a final concentration of 1.0 μM in a 96-well plate. The plate was incubated at 37° C., 900 rpm. All incubations will be performed in singlet. • 3. 25 μL aliquots of well contents were collected at time points of 0, 15, 30, 60, 90 and 120 minutes. The reactions were stopped by the addition of 6-fold volumes of cold acetonitrile with internal standards. • 4. After centrifugation for 25 minutes at 3,220 g. Aliquot of 100 μL of the supernatant was mixed with 100 μL of ultra-pure H2O and then used for LC-MS/MS analysis.
All calculations were carried out using Microsoft Excel. Peak areas were determined from extracted ion chromatograms. Determine the in vitro half-life (t1/2) of parent compound by regression analysis of the percent parent disappearance vs. time curve.
The in vitro half-life (in vitro t1/2) is determined from the slope value k:
Conversion of the in vitro t1/2(in min) into the in vitro intrinsic clearance (in vitro CLint, in μL/min/10^6 cells) is done using the following equation:
V=incubation volume (0.2 mL);
N=number of hepatocytes per well (0.2×10^6 cells).
Conversion of the in vitro t1/2(in min) into the scale-up intrinsic clearance (CLint(liver), in mL/min/kg) was done using the following equation:
CLint(liver)=kV/N×scaling factor

[2] = Pharmacokinetic and tissue distribution study via intravenous and oral administration in male C57BL/6 mice; format: in vivo; settings: for Kp / clearance / Cmax: male, C57BL/6, mouse; for Kp: liver and plasma, po; for Kp / Cmax / Liver AUCinf/Dose / Liver Cmax/Dose / PO AUCinf/Dose: PO; for clearance / IV AUCinf/Dose: IV, nominal 2 mg/kg; for clearance: read-out: IV Cl; for Cmax: dose per compound in table (5.28-9.95 mg/kg); for F: PO vs IV
Experimental: Male C57BL/6 mice with a weight range of 20-25 g (Hua Fu Kang, China) were used. Animals were fasted overnight and free access to food 4 hours after dosing.
Test compound (correction factor: 1.00) was dissolved in a 20% hydroxypropyl-β-cyclodextrin (HP-β-CD) at a final concentration of 1 mg/ml for the intravenous (IV) formulation and at final concentrations of 0.5 mg/ml for the oral (PO) formulation. The intravenous formulation was dosed at 2 ml/kg to obtain a dose of 2 mg/kg. The oral formulations were dosed at 10 ml/kg to obtain final doses of 5 mg/kg.
Blood samples were taken at 7 and 20 min, 1, 2, 4, 8 and 24 h after intravenous dose administration. Blood and liver samples were taken at 30 min, 1, 2, 4, 8, 12 and 24 h after oral dose administration.
(§1) Approximately 0.020 mL blood will be collected into BD blood collection tubes containing K3-EDTA at each time point. Samples were placed immediately on melting ice and plasma was obtained following centrifugation at 4° C. for 5 minutes at approximately 4000×g. Plasma samples were adjusted to pH 3-4 by phosphoric acid and stored at −75±15° C. prior to analysis. The whole process was completed within 1 hour.
Liver samples were collected at adopted time point, and the vial containing the tissues sample was snap-frozen in liquid nitrogen right away and kept at −75±15° C. prior to analysis. All liver samples were weighed and homogenized with phosphoric acid solution (pH to 3-4) by liver weight (g) to phosphoric acid solution volume (mL) ratio 1:4 before analysis.
Plasma and liver samples were analyzed using LC-MS/MS methods. The lower limit of quantification (LLOQ) for plasma was 1.0 ng/ml and for liver was 2.5 ng/g. A non-compartmental analysis using the “Linear up log down” rule was used for all data. A limited pharmacokinetic analysis was performed using Phoenix™ Professional (Version 6.1).

[3] = Pharmacokinetic study after intravenous and oral administration in male SD rats; format: in vivo; settings: for clearance / Cmax: male, SD; for clearance / IV AUCinf/Dose: IV, nominal 2 mg/kg; for clearance: read-out: IV Cl; for Cmax / PO AUCinf/Dose: PO; for Cmax: nominal 5 mg/kg; for F: PO vs IV
Experimental: Male SD rats with a weight range of 250-300 g (Si Bei Fu Laboratory Animal Technology Co. Ltd, China) were used. Animals were fasted overnight and free access to food 4 hours after dosing.
Test compound (correction factor: 1.00) was dissolved in a 20% hydroxypropyl-β-cyclodextrin (HP-β-CD) at a final concentration of 1 mg/ml for the intravenous (IV) formulation and at final concentrations of 0.5 mg/ml for the oral (PO) formulation.
The intravenous formulation was dosed at 2 ml/kg to obtain a dose of 2 mg/kg. The oral formulations were dosed at 10 ml/kg to obtain final doses of 5 mg/kg.
Blood samples were taken at 5, 15 and 30 min, 1, 2, 4, 8 and 24 h after intravenous dose administration. Blood samples were taken at 15 and 30 min, 1, 2, 4, 8, 12 and 24 h after oral dose administration.
as §1, with “0.20” for “0.020”, “containing Sodium Fluoride (NaF), Potassium Oxalate (KoX) and” for “containing”
Plasma samples were analyzed using LC-MS/MS methods. The lower limit of quantification (LLOQ) for plasma was 1.0 ng/ml.
A non-compartmental analysis using the “Linear up log down” rule was used for all data. A limited pharmacokinetic analysis was performed using Phoenix™ Professional (Version 6.1). Results: See table 10 below for plasma PK results.

[4] = mice, read-out: AUCInf Ratio (Liver/Plasma)
[5] = mice, read-out: Cmax Ratio (Liver/Plasma)
[6] = rat plasma, comparing with reference 2

SMILES	half-life at 1 uM [1] [h]	CLint scaled at 1 uM [1] [L/h/kg]	Kp [2, 4]	Kp [2, 5]	clearance ([2]; mice plasma) [L/h/kg]	Cmax ([2]; mice plasma) [µg/mL]	Liver AUCinf/Dose ([2]; mice liver) [ng·kg·h/g/mg]	Liver Cmax/Dose ([2]; mice liver) [kg·ng/mg/mL]	IV AUCinf/Dose ([2]; mice plasma) [ng·kg·h/mg/mL]	PO AUCinf/Dose ([2]; mice plasma) [ng·kg·h/mg/mL]	F ([2]; mice) [%]	clearance ([3]; rat plasma) [L/h/kg]	Cmax ([3]; rat plasma) [µg/mL]	IV AUCinf/Dose ([3]; rat plasma) [ng·kg·h/mg/mL]	PO AUCinf/Dose ([3]; rat plasma) [ng·kg·h/mg/mL]	F ([3]; rat) [%]	also measured
CCOC(=O)C1=C(CN2CCN3C(=S)N(CC(C)(C)C(=O)O)CC3C2)NC(c2nccs2)=N[C@H]1c1cccc(F)c1C (single isomer, unassigned) [Compound 1A]	3.82	0.462	17.5	14	0.996	2.35	13733	6225	1078.3	784.8	72.9	0.696	4.06	1578.1	1780.7	113	dose-normalized Cmax and dose-normalized AUCinf in liver, in words ([2]; mice liver, comparing with reference 1 and reference 2): far increased; clearance, in words ([2]; mice plasma, comparing with reference 1 and reference 2): far slower clearance; bioavailability in plasma, in words ([2]; mice, comparing with reference 1 and reference 2): increased bioavailability; clearance, in words [3, 6]: far slower clearance; dose-normalized AUC (AUCinf/Dose), in words [3, 6]: over two-folds higher; bioavailability (F (%)), in words ([3]; rat, comparing with reference 2): increased (or equal) bioavailability
CCOC(=O)C1=C(CN2CCN3C(=O)N(CC(C)(C)C(=O)O)C[C@@H]3C2)NC(c2nccs2)=N[C@H]1c1cccc(F)c1C [Reference 2, reference compound]	2.45	0.72	15.9	12.2	2.95	0.733	2894	1676	345.2	181.5	52.7	3.94	0.332	254.9	129.7	50.8	
